In one data set the test system is monkeys. As to conditions: monkeys from six months old, double the normal dose; cited from earlier work.
A further data set has as its system inflammatory disorders. The experiment in a line: Magnesium sulfate in distilled water by intraperitoneal injection in a cow. The class given is in vivo. Conditions: approximately 40 grams, cow of 500 kg. The text has this: After several years of using magnesium salts, the dose was reduced to an average dose of 3–20 grams for a 500 kg cow to get the same therapeutic effect. Therefore, the intraperitoneal administration, compared to other methods of drug administration, is a safe method because it avoids the toxic side effects through first-pass hepatic metabolism which permits the organism to create the abundance of magnesium used for recovery and healing. In fact, the administered dose can be higher than the traditional toxic level doses.

Another data set has as its system cow. Briefly: Solution / magnesium in complicated cases with intoxication. The class given is in vivo. How it is done:
For example, during calving of weak and strong contractions of the uterus, atony of the rumen, reticulum and abamasum, colic and constipation. In fact, after administration of the solution, the effect can be seen even in complicated cases when intoxication takes place, the temperature of the body is increased, and there is loss of appetite. In this situation, the cow starts to ruminate and the general condition improves in 10 to 15 minutes after administration of the solution.

The test system of data set [1] is parturient paresis in cows (milk fever), ketosis (acetonomia), and paraplegia gravidarum. Briefly: Methenamine along with magnesium salts in parturient paresis, ketosis and paraplegia gravidarum. The class given is in vivo. The text has this:
Methenamine breaks down to formaldehyde and ammonia in areas of inflammation where formaldehyde acts as anti-inflammatory and bactericidal agent. Methenamine also increases membrane permeability, which helps to eliminate antibacterial toxic material from the body. […] After the fifteen minutes of administration, the condition of cows that had parturient paresis (milk fever), ketosis (acetonomia) started to improve and the cows began rumination again.

A further data set concerns Dogs. As to conditions: up to 600 mg/kg IV, single dose; cited from earlier work.
In data set [2] the test system is rats. Conditions: up to 600 mg/kg IV, single dose; cited from earlier work.
Data set [3] deals with rats. Conditions: reproduction studies in rats; cited from earlier work.
The subject of the next data set is rabbits. As to conditions: reproduction studies in rabbits; cited from earlier work.
The conditions of data set [4]: powder; cited from earlier work.
[5] abbreviates: after administration of magnesium.

Consider `C1N2CN3CN1CN(C2)C3` [Methenamine hippurate], for which the adverse effects entry in the data set with monkeys is reported as “without adverse effects”.

`O.O.O.O.O.O.O.O=S(=O)([O-])[O-].[Mg+2]` [magnesium sulfate, magnesium sulfate (MgSO4×7H2O)]: in the data set on inflammatory disorders, the side effects result is reported as “without any side effects” and the treatment outcome is recorded as “successful treatment”.

For the compound `[Mg+2]` [magnesium], in the data set on cow (setting [5]), the “day of complete recovery” value was “seventh” and the “day on which the general condition improved” value is reported as “third”. Also, the “day of estrus after administration” value in the data set on cow (cows that previously did not have estrus) is given as “seventh”.

For the compound `C1N2CN3CN1CN(C2)C3` [methenamine, methenamine (hexamethylenetetramine, C6H12N4)], the treatment outcome in [1] (20 grams per 500 kg, along with magnesium salts, other therapies unsuccessful) is “successful treatment”. In addition, in [1] (parturient paresis (milk fever), ketosis (acetonomia)), the “time after administration at which condition started to improve and rumination began” value is given as “fifteen”. In addition, the toxic effects result with Dogs and in the data set with rats [2] was “without evidence of toxic effects” in each case. Besides, the “harm to the fetus” value with rats [3] and with rabbits was “have not revealed evidence of harm to the fetus” throughout. In data set [4], the solubility in water result is recorded as “very soluble in water”.

(Values after patent US7097860B2, “Method and composition for treatment of inflammatory and inflammation-related disorders” (priority 2001, dated 2006).)
